Results on four molecules are retold here after patent US20250281540A1, “Methods for Haematopoietic Stem Cell Transplantation” (Ospedale San Raffaele S.r.l., priority 2022, published 2025).

The subject of test [1] is WBC, LSK and SLAM HSC. The test is described as follows: Mobilization protocols in Cd40Ig^−/− mice (PB and BM counts). The format is in vivo. The source says: To investigate the therapeutic potential of M-HSCT, we took advantage of Cd40Ig^−/− mice, which faithfully recapitulate the phenotype of the human primary combined immunodeficiency Hyper IgM Syndrome 1 (HIGM-1; Renshaw, B. R., et al. (1994). J Exp Medicine 180, 1889-1900). Because G-CSF treatment may have a detrimental effect on the BM niche, we investigated the efficiency of mobilization protocols differing for its presence or absence, the G-CSF dose and the duration and combination with other drugs (FIG. 2A).
(§1) Blood samples were also analysed with the hemocytometer Sysmex KX-21N (Block scientific, Sysmex corporation) to quantify absolute numbers.
Different protocols were tested in Cd40Ig^−/− mice: (i) s.c. pump delivering 250 μg/kg/day of G-CSF for 7 days (G7); (ii) s.c. pump delivering 250 μg/kg/day of G-CSF for 7 days, with i.p. injections of AMD3100 (5 mg/kg/day) on day 6 and 7 (G7A); (iii) s.c. pump delivering 250 μg/kg/day of G-CSF for 7 days, with i.p. injections of AMD3100 (5 mg/kg/day) and BIO5192 (1 mg/kg/day) on day 6 and 7 (G7AB); (iv) s.c. pump delivering 125 μg/kg/day of G-CSF for 7 days, with i.p. injections of AMD3100 (5 mg/kg/day) and BIO5192 (1 mg/kg/day) on day 6 and 7 (G7AB-H); (v) G-CSF delivered by i.p. injections (125 μg/kg) every 12 hours for four days, with AMD3100 s.c. injections (5 mg/kg) 14 hours after the last dose of G-CSF (G5A); (vi) G-CSF delivered by i.p. injections (125 μg/kg) every 12 hours for four days, with AMD3100 (5 mg/kg) and BIO5192 (1 mg/kg) s.c. injections 14 hours after the last dose of G-CSF (G5AB); (vii) s.c. pump delivering 250 μg/kg/day of G-CSF for 3 days, with i.p. injections of AMD3100 (5 mg/kg/day) and BIO5192 (1 mg/kg/day) on day 6 and 7 (G3AB); (viii) s.c. pump delivering 125 μg/kg/day of G-CSF for 3 days, with i.p. injections of AMD3100 (5 mg/kg/day) and BIO5192 (1 mg/kg/day) on day 6 and 7 (G3AB-H); and (ix) AMD3100 (5 mg/kg/day) and BIO5192 (1 mg/kg/day) i.p. injected for three days.
Bone marrow vacancy and estimated chimerism were calculated based on the following formulas in Cd40Ig^−/− mice (summarized in table below): • To determine the total number of SLAM HSC per mouse at steady state (FIG. 2G, left panel), lower limbs (which account for 20% of the total BM) were collected in a defined volume and counted, paralleled with their characterization through FACS. We found 2500 SLAM HSC/lower limbs, therefore reaching a total of 12,500 SLAM HSC/mouse (2500*100/20). This number is in accordance with other published papers (Chen, J., et al. (2008). Experimental hematology, 36(10), 1236-1243; Karpova, D., et al. (2017). Blood, 129(21), 2939-2949; and Singh, P., et al. (2020). Stem cells (Dayton, Ohio), 38(7), 849-859). • To determine the total number of SLAM HSC that egressed from the BM post-G7AB mobilization, we examined the BM of mobilized mice. 1100 SLAM HSC were recovered in the lower limbs, reaching a total of 5500 SLAM HSC in the BM of mobilized mice. Therefore, to determine the number of SLAM HSC egressed, the number of SLAM HSC present post-mobilization was subtracted from the total number of SLAM HSC present in the steady state mouse, leading to an assessment of 7000 SLAM HSC egressing from the BM (12500-5500). • The mobilized SLAM HSC/mL was calculated based on the bleeding performed at the peak of mobilization in mobilized mice (FIG. 2G, right panel). The blood was analyzed through hematocytometer (WBC/mL) and FACS staining (% subpopulation). […]

The test system of test [2] is GFP+ cells within the hCD45+ population. Nature of the test: M-HSCT in hematochimeric mice with drug-resistant CXCR4 variant; AMD3465 protocol. The format is in vivo, NSGW41 or NBSGW mice. The source says: FIG. 12. […] NSGW41 or NBSGW mice were humanized with human mobilized peripheral blood CD34+ cells until 10% chimerism was achieved. Mice were then mobilized with G-CSF for 7 days through subcutaneous pump implantations and with two injections of AMD3100 and BIO5192 at day 6 and 7. For the second transplant, GFP lentiviral vector-transduced cells from the same donor used to humanize the mice were electroporated with either CXCR4 wild type or CXCR4^D262N variant. The donor cells were then transplanted either at 3 h or immediately after the last injection of AMD3100. • (B) Human chimerism over time after mobilization, expressed as % of human CD45+ cells present in peripheral blood (right panel), and exchange efficiency (left panel) expressed as % of GFP+ cells within the hCD45+ population. CXCR4 Var=CXCR4 D262N. • (C) Mobilization efficiency of the standard protocol (G7AB) or the modified protocol with AMD3465 (G7AB*) measured as white blood cell count (WBC, left panel), and human CD34+CD38− cells (right panel). • (D) Human chimerism over time after mobilization, expressed as % of hCD45+ cells in peripheral blood (right panel), and exchange efficiency (left panel) expressed as % of GFP+ cells within the hCD45+ population. […]

Test [3] concerns WBC, LSK and SLAM HSC. The test is described as follows: Mobilization of WBC, LSK and SLAM HSC into the circulation of C57BL/6J CD45.2 mice. It is filed as in vivo. The note with it: addition of BIO5192 to G7A (G7AB). As to the method:
We tested two mobilization regimens in mice, one modeling a clinically approved protocol using G-CSF and AMD3100 (G7A), and the other one also comprising BIO5192 (G7AB). C57BL/6J CD45.2 mice were treated with G-CSF using a subcutaneous pump for a week combined with either AMD3100, or the combination of AMD3100 and BIO5192, delivered intraperitoneally at day 6 and 7 (FIG. 1A; FIG. 6B).
The addition of BIO5192 led to a higher mobilization of WBC, LSK and SLAM HSC, leading to an additional 2-fold increase of SLAM HSC over G7A levels.
as §1

Another test deals with CD45.1 Lin^− donor cells. Nature of the test: M-HSCT: donor CD45.1 chimerism after mobilization of CD45.2 recipients. The format is in vivo, C57BL/6J CD45.2 mice. The note with it: addition of BIO5192 to the G-CSF/AMD3100 protocol (G7AB); 2×10^6 CD45.1 Lin^− cells; PB. An excerpt:
To test if these levels of mobilization, and the subsequent BM niche availability, were sufficient to allow engraftment of donor cells, 2×10^6 CD45.1 lineage negative (Lin^−) cells, purified from the BM, were transplanted into CD45.2 congenic recipients after the last injection of AMD3100 or AMD3100/BIO5192 (FIG. 1A, C; FIG. 6D).
Donor mice between 6 and 10 weeks of age were euthanized by CO2, and BM cells were retrieved from femurs, tibias, and humeri. HSPCs were purified by Lin− selection using the mouse Lineage Cell Depletion Kit (Miltenyi Biotec) according to the manufacturer's instructions. Cells were then cultured (for 2 hours or overnight) in serum-free StemSpan medium (StemCell Technologies) containing penicillin, streptomycin, glutamine, and a combination of mouse cytokines (20 ng/ml IL-3, 100 ng/ml SCF, 100 ng/ml Flt-3L, 50 ng/ml TPO all from PeproTech), at a concentration of 2-5×10^6 cells.ml^−1. Purified Lin^− cells were transplanted at a total dose of 2×10^6 cells/mouse into 8 to 12-week-old mobilized mice, three hours after the last injection of AMD3100 and/or Bio5192. Serial collections of blood from the retro-orbital vein were performed to monitor the hematological parameters and donor cell engraftment. At the end of the experiment, BM, thymus and spleen, and lymph nodes were harvested and analyzed.

For a further test, the target named is VLA-4 (Homo sapiens, UniProt P05556+P13612). The note with it: VLA-4 versus α4β7 integrin; Ramirez et al. 2009; cited from earlier work.
VLA-4, sequence (P13612 34-1032): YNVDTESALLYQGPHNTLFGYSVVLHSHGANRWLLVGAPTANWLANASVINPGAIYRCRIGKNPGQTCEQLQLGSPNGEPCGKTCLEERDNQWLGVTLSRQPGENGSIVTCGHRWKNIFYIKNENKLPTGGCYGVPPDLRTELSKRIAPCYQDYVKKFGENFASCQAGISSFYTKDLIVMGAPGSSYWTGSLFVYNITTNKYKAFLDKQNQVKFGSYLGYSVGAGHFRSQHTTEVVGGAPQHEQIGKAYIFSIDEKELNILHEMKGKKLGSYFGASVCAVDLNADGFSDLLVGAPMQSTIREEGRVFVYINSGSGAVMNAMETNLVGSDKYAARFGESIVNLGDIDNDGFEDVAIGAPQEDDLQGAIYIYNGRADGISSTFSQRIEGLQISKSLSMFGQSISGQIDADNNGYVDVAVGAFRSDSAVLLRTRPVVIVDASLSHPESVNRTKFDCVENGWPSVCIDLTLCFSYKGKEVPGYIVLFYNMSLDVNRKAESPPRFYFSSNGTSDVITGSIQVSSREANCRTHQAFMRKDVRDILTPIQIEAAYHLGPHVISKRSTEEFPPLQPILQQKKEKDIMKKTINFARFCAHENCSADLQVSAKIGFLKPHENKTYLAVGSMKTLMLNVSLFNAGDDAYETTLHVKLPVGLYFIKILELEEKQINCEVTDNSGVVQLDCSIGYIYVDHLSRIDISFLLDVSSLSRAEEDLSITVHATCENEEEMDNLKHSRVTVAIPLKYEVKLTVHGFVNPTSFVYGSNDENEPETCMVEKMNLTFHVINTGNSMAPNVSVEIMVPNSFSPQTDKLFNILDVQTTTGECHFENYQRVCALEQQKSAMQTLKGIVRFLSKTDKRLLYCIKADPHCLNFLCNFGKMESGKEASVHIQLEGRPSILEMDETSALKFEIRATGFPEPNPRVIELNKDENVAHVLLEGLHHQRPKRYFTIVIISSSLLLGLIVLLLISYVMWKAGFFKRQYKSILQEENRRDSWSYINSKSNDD
VLA-4, sequence (P05556 21-798): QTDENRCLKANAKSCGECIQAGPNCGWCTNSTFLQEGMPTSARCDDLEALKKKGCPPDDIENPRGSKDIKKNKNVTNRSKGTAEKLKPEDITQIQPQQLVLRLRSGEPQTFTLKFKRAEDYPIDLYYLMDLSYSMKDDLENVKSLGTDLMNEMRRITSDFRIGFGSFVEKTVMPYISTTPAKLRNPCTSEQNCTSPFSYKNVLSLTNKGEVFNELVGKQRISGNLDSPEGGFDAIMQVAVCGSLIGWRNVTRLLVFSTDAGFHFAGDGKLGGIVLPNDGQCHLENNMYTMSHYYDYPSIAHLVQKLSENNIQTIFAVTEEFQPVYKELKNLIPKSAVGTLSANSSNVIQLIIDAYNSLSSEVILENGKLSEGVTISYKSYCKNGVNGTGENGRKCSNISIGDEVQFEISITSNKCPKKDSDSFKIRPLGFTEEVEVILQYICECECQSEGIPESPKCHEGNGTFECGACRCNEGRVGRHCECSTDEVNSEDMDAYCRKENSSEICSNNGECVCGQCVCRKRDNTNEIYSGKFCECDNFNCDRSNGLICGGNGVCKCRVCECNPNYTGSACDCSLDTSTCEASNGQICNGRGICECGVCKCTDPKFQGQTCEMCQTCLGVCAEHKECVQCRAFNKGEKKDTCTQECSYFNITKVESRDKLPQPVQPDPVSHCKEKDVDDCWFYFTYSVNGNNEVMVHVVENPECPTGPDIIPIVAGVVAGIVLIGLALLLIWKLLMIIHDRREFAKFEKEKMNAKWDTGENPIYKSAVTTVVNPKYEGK
A further test relates to MMP9. Nature of the test: ELISA on BM extracellular extracts, MMP9. The format is in vivo, Cd40Ig^−/− mice. As to the method:
(§2) For ELISA performed on BM matrix, femurs and tibias were repeatedly flushed with 1 mL of cold PBS. Cells were pelleted by centrifugation at 300 g for 10 minutes at 4° C., supernatant was then collected and stored at −80° C. ELISA has been performed following manufacturer instruction after a 1:100 dilution with 1× Assay Diluent for MMP9 (Thermo Scientific) or on undiluted BM matrix for CXCL12 (Sigma-Aldrich).
Background: An ELISA detects its analyte on a solid surface through an enzyme-linked reagent.

The subject of a further test is CXCL12. Nature of the test: ELISA on BM extracellular extracts, CXCL12. It is filed as in vivo, Cd40Ig^−/− mice. As to the method:
as §2

Regarding `c1cc(CN2CCCNCCNCCCNCC2)ccc1CN1CCCNCCNCCCNCC1` [AMD3100, plerixafor], the “increase of mobilized LSK” value with WBC, LSK and SLAM HSC [1] (addition of AMD3100 to the standard G-CSF treatment) was found to be 3 fold. The “time of peak of mobilization of WBC, LSK and SLAM HSC” value in the test on WBC, LSK and SLAM HSC [1] (post injection, PB analysis) was “around 3 hours”.

In the case of `c1ccc(CNCc2ccc(CN3CCCNCCNCCCNCC3)cc2)nc1` [AMD3465], in test [2] (AMD3100 or AMD3465, donor cells transplanted at the peak of mobilization), the exchange efficiency result is on record as “remained unchanged”. Further, the mobilization efficiency result in test [2] (AMD3465 compared to AMD3100 in the standard protocol with G-CSF and BIO5192) is recorded as “not affected”.

In the case of `Cc1ccccc1NC(=O)Nc1ccc(CC(=O)N(C)[C@@H](CC(C)C)C(=O)NCC[C@H](NC(=O)[C@@H]2CCCN2S(=O)(=O)c2cc(Cl)cc(Cl)c2)C(=O)O)cc1` [BIO5192], the “additional increase of SLAM HSC over G7A levels” value in the test on WBC, LSK and SLAM HSC [3] is recorded as 2 fold. In addition, the “donor chimerism, median” value with CD45.1 Lin^− donor cells is given as 30%. For the same molecule, the “further increase of mobilized LSK” value in the test with WBC, LSK and SLAM HSC [1] (BIO5192 added to G-CSF and AMD3100) is 5 fold. Further, the “affinity for VLA-4 higher than for the related α4β7 integrin” value at VLA-4 is listed as 250- to 1000 fold.

B1: G-CSF: granulocyte colony-stimulating factor (Lenograstim) delivered by osmotic pump (protein, UniProt P09919 31-207, looked up)
Granulocyte …: TPLGPASSLPQSFLLKCLEQVRKIQGDGAALQEKLVSECATYKLCHPEELVLLGHSLGIPWAPLSSCPSQALQLAGCLSQLHSGLFLYQGLLQALEGISPELGPTLDTLQLDVADFATTIWQQMEELGMAPALQPTQGAMPAFASAFQRRAGGVLVASHLQSFLEVSYRVLRHLAQP
For B1, in the test on WBC, LSK and SLAM HSC [1] (PB after mobilization protocols), the “blood neutrophils and monocytes counts” value is “highly increased”. For the same molecule, the “level of CXCR4 expression on circulating SLAM HSC” value in the test with WBC, LSK and SLAM HSC [1] (with versus without G-CSF mobilization) was “lower”. The “MMP9 in the BM stroma” value in the test on MMP9 is on record as “increased”. Besides, the “CXCL12 in the BM stroma” value with CXCL12 is reported as “decreased”.
